This is an account of results in ChEMBL document CHEMBL4130389, “An integrative study to identify novel scaffolds for sphingosine kinase 1 inhibitors” (Eur J Med Chem, 2017).

One may read the IC50 as the concentration at which inhibition is half-maximal.

In the assay the target is Sphingosine kinase 1 (Homo sapiens, UniProt Q9NYA1). Kind of assay: Inhibition of human N-terminal MGHHHHHHHHHHSSG-tagged SphK1 (2 to 384 residues) expressed in Escherichia coli Rosetta-2 by fluorescence assay.
Sequence of Sphingosine kinase 1 (Q9NYA1 whole entry, the tested form may be a part): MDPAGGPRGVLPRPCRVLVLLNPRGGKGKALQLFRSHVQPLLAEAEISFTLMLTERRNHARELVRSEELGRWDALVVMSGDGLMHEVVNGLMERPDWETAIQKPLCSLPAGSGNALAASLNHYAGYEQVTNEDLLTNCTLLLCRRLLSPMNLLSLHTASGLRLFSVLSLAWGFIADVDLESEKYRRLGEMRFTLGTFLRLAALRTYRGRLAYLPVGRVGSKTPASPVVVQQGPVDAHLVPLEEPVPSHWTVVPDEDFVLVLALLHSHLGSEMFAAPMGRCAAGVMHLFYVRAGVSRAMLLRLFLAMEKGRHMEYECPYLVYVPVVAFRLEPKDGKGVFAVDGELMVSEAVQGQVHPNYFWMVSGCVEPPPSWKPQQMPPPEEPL
Consider `CCCCOC(=O)Nc1ccc(C(O)CN2CCN(c3ccncc3)CC2)cc1` (stereo not drawn), for which the midpoint of inhibition, the IC50, lay at 55 µM.
In turn, `CCCCOC(=O)Nc1cccc(C(O)CN2CCN(c3ccncc3)CC2)c1` (stereo not drawn) showed an IC50 of 60 µM.
`CC1Cc2c(N/N=C/c3ccc(Cl)cc3)ncnc2N(C)c2ccccc21` (stereo not drawn) returned a 50% inhibitory concentration (IC50) of 12 µM.
